Test results: US20260274867A1, “PYRIDO[4,3-D]PYRIMIDINE DERIVATIVES AS MUTANT KRAS G12C INHIBITORS FOR THE TREATMENT OF CANCER” (Frontier Medicines Corporation, priority 2023, published 2026)

Molecular target: T1, KRAS G12C (GMPPNP-loaded, Cys-light, amino acids 1-169) and cRAF Ras-binding domain interaction (Homo sapiens, UniProt P01116, C118S/C51S/C80L/G12C)
T1 construct: truncated version comprising amino acids 1-169
Assay: Inhibition of KRAS G12C and cRAF binding (AlphaScreen)
Settings: KRAS G12C preloaded with GMPPNP, 2 hours compound incubation, room temperature
Method: The AlphaScreen technology was used to determine IC50s for compound inhibition of KRAS G12C (present as the Cys-light (C51S, C80L and C118S), truncated version comprising amino acids 1-169) and cRAF interaction. Compounds were diluted in 100% DMSO and each compound concentration was spotted at 200 nl/well onto low volume, white 384 well plates. The KRAS G12C contained a biotin-AviTag and the cRaf, as Ras-binding domain (amino acids 50-131, RBD), was GST-tagged. KRAS G12C was preloaded with the GTP analogue Guanosine 5′-[…] (GMPPNP). The KRAS G12C was diluted in 25 mM Hepes, pH 7.4, 150 mM NaCl, 5 mM MgCl2, 0.01% TritonX-100 and 10 μM GMPPNP and added at 10 ul/well to compound-spotted plates resulting in a DMSO concentration of 2%. Plates were incubated for 2 hours. A mixture of RBD and the AlphaScreen streptavidin donor and glutathione acceptor beads diluted in 25 mM Hepes, pH 7.4, 150 mM NaCl, 5 mM MgCl2, 0.01% TritonX-100 and 2% DMSO was then added at 10 ul/well and incubated for 60-90 minutes before the samples were read for emission at 570 nm after excitation of the donor beads at 680 nm. All incubations were performed at room temperature. The final top compound concentration was 50 μM with 1:3 titrations for 10-point dose response curves. Final assay conditions were 0.5 nM KRAS G12C, 0.75 nM RBD and 5 μg/ml each of AlphaScreen donor and acceptor beads. IC50s were determined using nonlinear regression fit of [inhibitor] vs. response (4 parameters).
A counter assay was also set up to rule out inhibitors of the AlphaScreen technology itself. Compound plates were incubated for 2 hours as above with buffer only. The AlphaScreen beads were added as above except biotin-AviTag-GST was substituted for the RBD. Samples were read and analyzed as above.

T1 sequence (P01116 1-169 isoform P01116-2 G12C/C51S/C80L/C118S): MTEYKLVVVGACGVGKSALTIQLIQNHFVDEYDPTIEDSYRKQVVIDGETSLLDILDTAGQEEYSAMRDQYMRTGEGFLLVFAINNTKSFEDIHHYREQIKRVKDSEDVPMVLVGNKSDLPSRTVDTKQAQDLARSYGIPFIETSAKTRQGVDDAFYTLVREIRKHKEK

SMILES | IC50 [nM]
COC(=O)/C=C(\F)C(=O)N1CCC(N(C)c2nc(OCC34CCCN3CCC4)nc3c2CCN(c2cccc4cccc(Cl)c24)C3)C1 (stereo not drawn) [Compound 1] | 10 to 100
N#CC[C@H]1CN(c2nc(OC[C@@]34CCCN3C[C@H](F)C4)nc3c(F)c(-c4cccc5ccc(F)c(Cl)c45)ncc23)CCN1C(=O)/C(F)=C\c1ccnc(C2CC2)n1 [Compound 7] | 10 to 100
N#CC[C@H]1CN(c2nc(OC[C@@]34CCCN3C[C@H](F)C4)nc3c(F)c(-c4cccc5ccc(F)c(F)c45)ncc23)CCN1C(=O)/C(F)=C\c1ccnc(C2CC2)n1 [Compound 8] | 10 to 100
CCc1c(F)ccc2cccc(-c3ncc4c(N5CCN(C(=O)/C(F)=C/c6ccnc(C)n6)[C@@H](CC#N)C5)nc(OC[C@@]56CCCN5C[C@H](F)C6)nc4c3F)c12 [Compound 9, 2-((S)-4-(7-(8-ethyl-7-fluoronaphthalen-1-yl)-8-fluoro-2-(((2R,7aS)-2-fluorotetrahydro-1H-pyrrolizin-7a(5H)-yl)methoxy)pyrido[4,3-d]pyrimidin-4-yl)-1-((Z)-2-fluoro-3-(2-methylpyrimidin-4-yl)acryloyl)piperazin-2-yl)acetonitrile] | < 10
CCc1c(F)ccc2cccc(-c3ncc4c(N5CCN(C(=O)/C(F)=C\c6ccnc(C7CC7)n6)[C@@H](CC#N)C5)nc(OC[C@@]56CCCN5C[C@H](F)C6)nc4c3F)c12 [Compound 10] | 100 to 500
Cc1nccc(/C=C(\F)C(=O)N2CCN(c3nc(OC[C@@]45CCCN4C[C@H](F)C5)nc4c(F)c(-c5cccc6ccc(F)c(F)c56)ncc34)C[C@@H]2CC#N)n1 [Compound 11, 2-((S)-4-(7-(7,8-difluoronaphthalen-1-yl)-8-fluoro-2-(((2R,7aS)-2-fluorotetrahydro-1H-pyrrolizin-7a(5H)-yl)methoxy)pyrido[4,3-d]pyrimidin-4-yl)-1-((Z)-2-fluoro-3-(2-methylpyrimidin-4-yl)acryloyl)piperazin-2-yl)acetonitrile] | < 10
CN1CCC1/C=C(/F)C(=O)N1CCN(c2nc(OC[C@@]34CCCN3C[C@H](F)C4)nc3c(F)c(-c4cccc5ccc(F)c(F)c45)ncc23)C[C@@H]1CC#N (stereo partly drawn) [Compound 12] | ≥ 500
CN1CC[C@@H]1/C=C(\F)C(=O)N1CC[C@@H](N(C)c2nc(OC[C@@]34CCCN3C[C@H](F)C4)nc3c(F)c(-c4cccc5ccc(F)c(F)c45)ncc23)C1 [Compound 13] | 100 to 500
CN1CC[C@@H]1/C=C(/F)C(=O)N1CC[C@@H](N(C)c2nc(OC[C@@]34CCCN3C[C@H](F)C4)nc3c(F)c(-c4cccc5ccc(F)c(F)c45)ncc23)C1 [Compound 14] | 10 to 100
CCc1c(F)ccc2cccc(-c3ncc4c(N5CCN(C(=O)/C(F)=C/c6cc(C)nc(C)n6)[C@@H](CC#N)C5)nc(OC[C@@]56CCCN5C[C@H](F)C6)nc4c3F)c12 [Compound 15] | < 10

Results, then the compound that gave them:

IC50 [nM] | SMILES
< 10 | Cc1nccc(/C=C(\F)C(=O)N2CCN(c3nc(OCC45CCCN4CCC5)nc4c(F)c(-c5cccc6cccc(Cl)c56)ncc34)C[C@@H]2CC#N)n1 [Compound 2]
< 10 | Cc1nsc(/C=C(\F)C(=O)N2CCN(c3nc(OCC45CCCN4CCC5)nc4c3CCN(c3cccc5ccc(F)c(Cl)c35)C4)C[C@@H]2CC#N)n1 [Compound 3]
< 10 | CC(C)c1noc(/C=C(\F)C(=O)N2CCN(c3nc(OCC45CCCN4CCC5)nc4c(F)c(-c5cccc6cccc(Cl)c56)ncc34)C[C@@H]2CC#N)n1 [Compound 4]
< 10 | Cc1nccc(/C=C(\F)C(=O)N2CCN(c3nc(OC[C@@]45CCCN4C[C@H](F)C5)nc4c(F)c(-c5cccc6ccc(F)c(Cl)c56)ncc34)C[C@@H]2CC#N)n1 [Compound 5, 2-((S)-4-(7-(8-chloro-7-fluoronaphthalen-1-yl)-8-fluoro-2-(((2R,7aS)-2-fluorotetrahydro-1H-pyrrolizin-7a(5H)-yl)methoxy)pyrido[4,3-d]pyrimidin-4-yl)-1-((Z)-2-fluoro-3-(2-methylpyrimidin-4-yl)acryloyl)piperazin-2-yl)acetonitrile]
< 10 | N#CC[C@H]1CN(c2nc(OC[C@@]34CCCN3C[C@H](F)C4)nc3c(F)c(-c4cccc5cccc(Cl)c45)ncc23)CCN1C(=O)/C(F)=C/c1ccnc(C2CC2)n1 [Compound 6]
